The values below come from ChEMBL document CHEMBL1201862, “PubChem BioAssay data set” (2004).

Each structure is given as a SMILES string.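 Protocol summary: plate cells (96-well), add compound at 5 concentrations, incubate 48 h, interpolate endpoints linearly. Here, GI50 denotes the concentration required for 50% inhibition of growth.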 Calls of active or inactive are those of the source. No stated cut-off is given here; in the data, active = GI50 up to about 1.1 µM and inactive = higher. Bounds are passed on as bounds.

Test systems include UO-31; LOX IMVI; NCI-H226; NCI-H460; UACC-62; Malme-3M; SNB-75; SNB-19; 786-0; A498; HCT-15; HCC 2998; U-251; SF-295; NCI-H23; RXF 393; A549.
Test in all cases: NCI-60 cell line screen, 48 h

As for `CC(=O)C1C(=O)C(=O)N(CCN2C(=O)C(=O)C(C(C)=O)C2=O)C1=O` (centres undefined), the GI50 with UO-31, in the test on LOX IMVI, with NCI-H226, in the test with NCI-H460, in the test on UACC-62 and in the test on Malme-3M was > 100 µM (inactive) throughout. Also, the GI50 with SNB-75 was > 100 µM (inactive); in the test with SNB-19, > 100 µM (inactive); in the test on 786-0, > 100 µM (inactive); in the test with A498, > 100 µM (inactive); in the test with HCT-15, more than 100 µM; in the test with HCC 2998, > 100 µM (inactive). For the same compound, the GI50 in the test on U-251, in the test on SF-295, in the test with NCI-H23 and in the test on RXF 393 was > 100 µM (inactive) in each case.

`CC1(C)OCN(c2ccc(N3CCOCC3)cc2)Cn2c1nc1ccccc12`: the GI50 is > 100 µM (inactive) in the test on UO-31; 31.8 µM (inactive) in the test on LOX IMVI; 55.3 µM (inactive) in the test with NCI-H226; > 100 µM (inactive) in the test on NCI-H460; > 100 µM (inactive) in the test on UACC-62; > 100 µM (inactive) in the test on Malme-3M. Further, the GI50 is > 100 µM (inactive) with SNB-75; > 100 µM (inactive) in the test on SNB-19; > 100 µM (inactive) in the test with 786-0; > 100 µM (inactive) in the test on A498; more than 100 µM in the test with HCT-15; > 100 µM (inactive) with HCC 2998. In addition, the GI50 was > 100 µM (inactive) in the test on A549; > 100 µM (inactive) with U-251; > 100 µM (inactive) in the test with SF-295; > 100 µM (inactive) in the test on NCI-H23; 39.1 µM (inactive) in the test on RXF 393.

As for `O=C1[C@H]2ON(c3ccccc3)C(c3ccccc3)[C@H]2C(=O)N1c1ccc(Cc2ccc(N3C(=O)[C@@H]4ON(c5ccccc5)C(c5ccccc5)[C@@H]4C3=O)cc2)cc1` (some centres undefined), the GI50 with UO-31, with LOX IMVI, in the test on NCI-H226, in the test on NCI-H460, with UACC-62 and with Malme-3M was > 100 µM (inactive) in each case. For the same compound, the GI50 in the test on SNB-75 was > 100 µM (inactive); with 786-0, > 100 µM (inactive); with A498, > 100 µM (inactive); in the test with HCT-15, more than 100 µM; with HCC 2998, > 100 µM (inactive); with A549 it was > 100 µM (inactive). In addition, the GI50 with U-251 was > 100 µM (inactive); with SF-295, > 100 µM (inactive); with NCI-H23 it was > 100 µM (inactive); with RXF 393, 88.1 µM (inactive).

For the compound `CC1(Cl)C(=O)NC(=O)N([C@H]2C[C@H](O)[C@@H](CO)O2)C1N=[N+]=[N-]` (some centres undefined), the GI50 with UO-31, in the test on LOX IMVI, in the test on NCI-H226, in the test with NCI-H460, in the test with UACC-62 and in the test on Malme-3M was > 100 µM (inactive) each time. The GI50 with SNB-75 is > 100 µM (inactive); in the test on SNB-19, > 100 µM (inactive); with 786-0, > 100 µM (inactive); in the test on A498, > 100 µM (inactive); with HCT-15 it was more than 100 µM; with HCC 2998, > 100 µM (inactive). Also, the GI50 in the test on A549, in the test on U-251, in the test on SF-295, with NCI-H23 and with RXF 393 was > 100 µM (inactive) throughout.

`CCc1c(OC(C)=O)c2c(NC3OC(COC(C)=O)C(OC(C)=O)C(OC(C)=O)C3OC(C)=O)nc(OC)nc2oc1=O` (centres undefined): the GI50 in the test on UO-31, in the test on LOX IMVI, in the test on NCI-H226, in the test with NCI-H460, in the test on UACC-62 and in the test on Malme-3M was > 100 µM (inactive) in each case. The GI50 in the test on SNB-75 is > 100 µM (inactive); in the test on SNB-19 it was > 100 µM (inactive); in the test on 786-0 it was > 100 µM (inactive); with A498, > 100 µM (inactive); in the test with HCT-15, more than 100 µM; in the test with HCC 2998 it was > 100 µM (inactive). The GI50 in the test on A549, with U-251, in the test with SF-295, in the test with NCI-H23 and with RXF 393 was > 100 µM (inactive) each time.

On to `Cc1ccc(NC(=O)C(=O)C2NC(=S)NC2=O)c([N+](=O)[O-])c1` (centres undefined), for which the GI50 in the test with UO-31, in the test on LOX IMVI, with NCI-H226, in the test on NCI-H460, in the test on UACC-62 and with Malme-3M was > 100 µM (inactive) in each case. In addition, the GI50 was > 100 µM (inactive) in the test on SNB-75; > 100 µM (inactive) in the test with SNB-19; > 100 µM (inactive) in the test with 786-0; > 100 µM (inactive) in the test on A498; more than 100 µM with HCT-15; > 100 µM (inactive) in the test with HCC 2998. Besides, the GI50 in the test with A549, with U-251, in the test with SF-295, in the test on NCI-H23 and with RXF 393 was > 100 µM (inactive) in each case.

For `CC(C)[C@@H]1C=C(c2ccccc2)c2ccccc2C1C(C#N)(C#N)C(C)C` (some centres undefined), the GI50 in the test on UO-31, in the test with LOX IMVI, in the test with NCI-H226, with NCI-H460, with UACC-62 and in the test with Malme-3M was > 100 µM (inactive) throughout. Also, the GI50 in the test on SNB-75 is > 100 µM (inactive); in the test on SNB-19, > 100 µM (inactive); in the test with 786-0, > 100 µM (inactive); in the test with A498, > 100 µM (inactive); with HCT-15, more than 100 µM; with HCC 2998, 90.4 µM (inactive). The GI50 was 79.4 µM (inactive) in the test on A549; > 100 µM (inactive) in the test with U-251; > 100 µM (inactive) in the test on SF-295; 76 µM (inactive) in the test with NCI-H23; > 100 µM (inactive) in the test on RXF 393.

Turning to `c1cnc2nc3n(c2c1)CSC3`, the GI50 in the test with UO-31, in the test on LOX IMVI, in the test on NCI-H226, in the test on NCI-H460, with UACC-62 and with Malme-3M was > 100 µM (inactive) each time. Further, the GI50 in the test with SNB-75 is > 100 µM (inactive); in the test on 786-0 it was > 100 µM (inactive); in the test with A498 it was > 100 µM (inactive); in the test with HCT-15, more than 100 µM; with HCC 2998 it was > 100 µM (inactive); in the test on A549, > 100 µM (inactive). For the same compound, the GI50 with U-251, in the test on SF-295, in the test on NCI-H23 and in the test with RXF 393 was > 100 µM (inactive) throughout.

Take `COc1c(C2=NC(C(C)C)CO2)ccc2ccccc12` (centres undefined): the GI50 is 31.4 µM (inactive) in the test on UO-31; 21.5 µM (inactive) in the test on LOX IMVI; 30.6 µM (inactive) in the test with NCI-H226; 9.25 µM (inactive) in the test with NCI-H460; 49 µM (inactive) in the test on UACC-62; 35.8 µM (inactive) in the test with Malme-3M. The GI50 in the test on SNB-75 was 27.6 µM (inactive); in the test on SNB-19, 50.5 µM (inactive); with 786-0, 45.9 µM (inactive); in the test on A498, 27.3 µM (inactive); in the test with HCT-15, 5.11 µM; in the test on HCC 2998 it was 23.7 µM (inactive). In addition, the GI50 in the test with A549 was 32.7 µM (inactive); with SF-295, 26.7 µM (inactive); in the test on NCI-H23 it was 34.6 µM (inactive); with RXF 393, 16.4 µM (inactive).
